Experimental findings from ChEMBL document CHEMBL4842340, “Development of Cagrilintide, a Long-Acting Amylin Analogue” (J Med Chem, 2021) are described below.

≈ marks a conversion by molar mass, not a printed value. *1 amine or outer side, *2 acyl side, *3 side chain or, on linkers, in order; H or OH if unused. Where a SMILES comes first, the peptide text is derived from it. Bridges are numbered along the chain shown (N, C = ends). The star is where a group is joined. C20 diacid = O=C(O)CCCCCCCCCCCCCCCCCCC(=O)*; γGlu = O=C(O)[C@H](CCC(=O)[*:2])N[*:1]

By EC50 is commonly meant the concentration needed to bring the measured effect to its halfway point. For orientation: IC50 means the concentration needed to halve the response being measured. What is called solubility is the dissolved amount per volume that the medium holds.

Series [1] in a line: Agonist activity at rat AMY3R (CT+RAMP3) expressed in tk-ts13 cells assessed as increase in intracellular cAMP level incuabted for 25 mins by CRE luciferase reporter gene assay. Conditions: tk-ts13, 25 min. It counts as cell-based. In general terms: Changes in cAMP serve as a functional read-out for many G protein-coupled receptors.
The species named for series [2] is Rattus norvegicus. As to the kind of experiment: Ratio of EC50 for rat calcitonin receptor expressed in BHK-13 cells to EC50 for rat AMY3R (CT+RAMP3) expressed in tk-ts13 cells. Type of series: cell-based.
Series [3] can be described thus: Displacement of [125I]-calcitonin from rat calcitonin receptor expressed in tk-ts 13 cells measured after 120 mins by scintillation proximity assay. It counts as cell-based. Conditions: tk-ts13.
A short description of series [4]: Solubility of the compound in lactate at pH 4 by UPLC analysis. It counts as physicochemical. The conditions noted are these: lactate buffer.
Series [5] concerns Rattus norvegicus. As to the kind of experiment: Reduction in food intake in Sprague-Dawley rat at 3 nmol/kg, sc administered as single dose measured upto 24 hrs relative to control. Type of series: functional. Also on record: scale not given: the % may be the effect or the level left. The conditions noted are these: time hrs <=24.
A short description of series [6]: Agonist activity at human calcitonin receptor expressed in BHK570 cells assessed as increase in intracellular cAMP concentration incubated for 3 hrs in absence of albumin by CRE luciferase reporter gene assay. It counts as cell-based. Conditions: BHK570, 3 h. Background: Reporter assays use an easily measured gene product as a stand-in for the process of interest.

Series [7] in a line: Solubility of the compound in bis-tris propane at pH 6 by UPLC analysis. Type of series: physicochemical. Conditions: bis-tris propane buffer.
Series [8] concerns Rattus norvegicus. The series can be described thus: Reduction in food intake in Sprague-Dawley rat at 3 nmol/kg, sc administered as single dose measured after 24 to 48 hrs relative to control. Type of series: functional. Further details: scale not given: the % may be the effect or the level left. Conditions: time 24-48 hrs.
Series [9] in a line: Agonist activity at human AMY3R (CT+RAMP3) expressed in Hollex1 cells incubated for 3 hrs by luminescence assay. Type of series: cell-based. Conditions: Hollex1, 3 h.
The species entered for series [10] is Homo sapiens. As to the kind of experiment: Ratio of IC50 for displacement of [125I]-calcitonin from human calcitonin receptor expressed in tk-ts 13 cells to IC50 for displacement of [125I]-amylin from human AMY3R (CTR+RAMP3) expressed in BHK-13 cells. It counts as cell-based.
Series [11] is described as follows: Agonist activity at rat calcitonin receptor expressed in BHK-13 cells assessed as increase in intracellular cAMP concentration incubated for 25 mins by CRE luciferase reporter gene assay. Type of series: cell-based. Conditions: BHK-13, 25 min.
The nature of series [12]: Displacement of [125I]-amylin from human AMY3R (CTR+RAMP3) expressed in BHK-13 cells measured after 120 mins by scintillation proximity assay. It counts as cell-based.
Series [13] in a line: Solubility of the compound in lactate at pH 5 by UPLC analysis. It counts as physicochemical. The conditions noted are these: lactate buffer.
Series [14] can be described thus: Solubility of the compound in lactate at pH 3 by UPLC analysis. It counts as physicochemical. Conditions: lactate buffer.
The target in series [15] is Insulin (Homo sapiens) (UniProt P01308). The series can be described thus: Effect on insulin (unknown origin) amyloid fibril formation assessed as lag time in glycyl-glycine buffer at pH 4 measured after 45 hrs by thioflavin-T fluorescence assay.
Chain of Insulin (Homo sapiens) (P01308 whole entry): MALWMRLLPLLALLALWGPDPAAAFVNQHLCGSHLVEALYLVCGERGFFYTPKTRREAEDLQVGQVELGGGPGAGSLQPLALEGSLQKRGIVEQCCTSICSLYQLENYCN
Series [16] is described as follows: Solubility of the compound in bis-tris propane at pH 8 by UPLC analysis. Type of series: physicochemical. The conditions noted are these: bis-tris propane buffer.
Series [17] can be described thus: Solubility of the compound in bis-tris propane at pH 7 by UPLC analysis. Type of series: physicochemical. The conditions noted are these: bis-tris propane buffer.
Series [18] is described as follows: Displacement of [125I]-amylin from rat AMY3R (CTR+RAMP3) expressed in BHK-13 cells measured after 120 mins by scintillation proximity assay. Type of series: cell-based. For orientation: In a radioligand displacement assay an active substance lowers the binding of a labelled ligand.
Series [19] can be described thus: Displacement of [125I]-calcitonin from human calcitonin receptor expressed in tk-ts 13 cells measured after 120 mins by scintillation proximity assay. The conditions noted are these: tk-ts13. It counts as cell-based.
Series [20] can be described thus: Solubility of the compound in bis-tris propane at pH 7.5 by UPLC analysis. It counts as physicochemical. Conditions: bis-tris propane buffer.
The nature of series [21]: Solubility of the compound in bis-tris propane at pH 6.5 by UPLC analysis. It counts as physicochemical. Conditions: bis-tris propane buffer.
Series [22] has as its target Insulin (Homo sapiens) (UniProt P01308). As to the kind of experiment: Effect on insulin (unknown origin) amyloid fibril formation assessed as peptide recovery in glycyl-glycine buffer at pH 4 measured after 45 hrs by thioflavin-T fluorescence assay relative to control. Also on record: concentration or dose not given beside the values.
The species named for series [23] is Rattus norvegicus. The series can be described thus: Ratio of IC50 for displacement of [125I]-calcitonin from rat calcitonin receptor expressed in tk-ts 13 cells to IC50 for displacement of [125I]-amylin from rat AMY3R (CTR+RAMP3) expressed in BHK-13 cells. It counts as cell-based.
The species named for series [24] is Homo sapiens. As to the kind of experiment: Ratio of EC50 for human calcitonin receptor expressed in BHK570 cells to EC50 for human AMY3R (CT+RAMP3) expressed in Hollex1 cells. Type of series: cell-based.
For series [25], the system named is Rattus norvegicus. The series can be described thus: Reduction in food intake in Sprague-Dawley rat at 30 nmol/kg, sc administered as single dose measured upto 24 hrs relative to control. It counts as functional. Further details: scale not given: the % may be the effect or the level left. The conditions noted are these: time hrs <=24.
Series [26] relates to Rattus norvegicus. As to the kind of experiment: Reduction in food intake in Sprague-Dawley rat at 30 nmol/kg, sc administered as single dose measured after 24 to 48 hrs relative to control. It counts as functional. Also on record: scale not given: the % may be the effect or the level left. Conditions: time 24-48 hrs.

On to `CC[C@H](C)[C@H](NC(=O)[C@@H]1CCCN1C(=O)CNC(=O)[C@H](Cc1ccccc1)NC(=O)[C@H](CC(N)=O)NC(=O)[C@H](CC(N)=O)NC(=O)[C@H](CO)NC(=O)[C@H](CO)NC(=O)[C@H](Cc1c[nH]cn1)NC(=O)[C@H](Cc1cnc[nH]1)NC(=O)[C@H](CC(C)C)NC(=O)[C@H](Cc1ccccc1)NC(=O)[C@H](CCC(=O)O)NC(=O)[C@H](C)NC(=O)[C@H](CC(C)C)NC(=O)[C@H](CCCNC(=N)N)NC(=O)[C@H](CCC(N)=O)NC(=O)[C@@H](NC(=O)[C@H](C)NC(=O)[C@@H]1CSSC[C@H](NC(=O)[C@H](Cc2cnc[nH]2)NC(=O)CC[C@H](NC(=O)CCCCCCCCCCCCCCCCCCC(=O)O)C(=O)O)C(=O)N[C@@H](CC(N)=O)C(=O)N[C@@H]([C@@H](C)O)C(=O)N[C@@H](C)C(=O)N[C@@H]([C@@H](C)O)C(=O)N1)[C@@H](C)O)C(=O)N[C@@H](CC(C)C)C(=O)N1CCC[C@H]1C(=O)N1CCC[C@H]1C(=O)N[C@H](C(=O)N[C@@H](CC(N)=O)C(=O)N[C@H](C(=O)NCC(=O)N[C@@H](CO)C(=O)N[C@@H](CC(N)=O)C(=O)N[C@H](C(=O)N1CCC[C@H]1C(N)=O)[C@@H](C)O)C(C)C)[C@@H](C)O` ({C20 diacid-γGlu}-HCNTATCATQRLAEFLHHSSNNFGPILPPTNVGSNTP-NH2; disulfide 2-7), for which the EC50 in series [1] turned out to be 0.121 nM; in series [6] it was 0.067 nM; in series [9], 0.091 nM; in [11], 0.109 nM. The Ratio EC50 in [2] and in series [24] was 1 each time. Also, the IC50 was 0.134 nM in [3], 0.293 nM in series [12], 0.074 nM in series [18] and 0.264 nM in series [19]. In addition, the solubility in series [4], in series [7], in [13], in [14], in series [16] and in [17] was 200 µM (≈ 880 µg/mL) each time. Also, the solubility in series [20] and in [21] was 200 µM (≈ 880 µg/mL) throughout. The results for the Activity in [5], in [8] and in series [22] were 68%, 67% and 100%, respectively. In addition, the Ratio IC50 in series [10] was determined as 1; in series [23], 2. Further, in series [15], the TIME was 26 h.
As to `CC[C@H](C)[C@H](NC(=O)[C@H](CCC(=O)O)NC(=O)CNC(=O)[C@H](Cc1ccccc1)NC(=O)[C@H](CC(N)=O)NC(=O)[C@H](CC(N)=O)NC(=O)[C@H](CO)NC(=O)[C@H](CO)NC(=O)[C@H](CCCNC(=N)N)NC(=O)[C@H](Cc1cnc[nH]1)NC(=O)[C@H](CC(C)C)NC(=O)[C@H](Cc1ccccc1)NC(=O)[C@H](CCC(=O)O)NC(=O)[C@H](C)NC(=O)[C@H](CC(C)C)NC(=O)[C@H](CCCNC(=N)N)NC(=O)[C@H](CCC(N)=O)NC(=O)[C@@H](NC(=O)[C@H](C)NC(=O)[C@@H]1CSSC[C@H](NC(=O)[C@H](Cc2cnc[nH]2)NC(=O)CC[C@H](NC(=O)CCCCCCCCCCCCCCCCCCC(=O)O)C(=O)O)C(=O)N[C@@H](CC(N)=O)C(=O)N[C@@H]([C@@H](C)O)C(=O)N[C@@H](C)C(=O)N[C@@H]([C@@H](C)O)C(=O)N1)[C@@H](C)O)C(=O)N[C@@H](CC(C)C)C(=O)N[C@@H](CO)C(=O)N[C@@H](CCCNC(=N)N)C(=O)N[C@H](C(=O)N[C@@H](CC(N)=O)C(=O)N[C@H](C(=O)NCC(=O)N[C@@H](CO)C(=O)N[C@@H](CC(N)=O)C(=O)N[C@H](C(=O)N[C@@H](Cc1ccc(O)cc1)C(N)=O)[C@@H](C)O)C(C)C)[C@@H](C)O`, the Activity in series [25] amounted to 53%; in series [26] it was 46%.
